Experimental data: patent US20230107216A1, “PANTETHEINE DERIVATIVES AND USES THEREOF” (Comet Therapeutics, Inc., priority 2018, published 2023)

Tested on: oligodendrocyte precursor cells (OPC) in mixed brain cultures
Test: Oligodendrocyte precursor cells (OPC) proliferation, O4+ cell count
Format: cell-based, mouse
Conditions: 10 uM
Method: The effect of compounds of the present disclosure was determined on oligodendrocyte precursor cells proliferation (OPC).
Cell culture. Brains of wild type mice (whole brain from 1 or 2 mouse pups) less than postnatal day (P) 2 were isolated and cultured. Briefly, following removal of the meninges, cells were dissociated with 0.25% EDTA/CMF-DMEM and 1% Trypsin (1:1), plated at a density of 75,000 cells/on 0.1 mg/ml poly-L-lysine coated borosilicate glass coverslips in 24-well plates, grown in OPC differentiation media (Oligo media) consisting of DMEM/F12 (Invitrogen 21331-020) supplemented with 1% FBS, 1% N2 Neural Supplement (Invitrogen 17502-048) and PDGF receptor alpha growth factor (Invitrogen 17502-048). Cells were fed every other day and allowed to grow for 7 days in vitro (DIV).
OPCs treatment with compounds of the present disclosure. Cells were treated with compounds of the present disclosure (50-10 μM) or vehicle (0.1% DMSO) starting at 7 DIV. Media was replaced daily with freshly made working solutions of compounds or vehicle for either 48 h (9 DIV total) or 96 h (11 DIV). The 48 h group consisted of 1 coverslip per condition. The 96 h group was treated in duplicate.
Fresh aliquots of compounds of the present disclosure were made up on the day of treatment, briefly, a 50 mM stock was thawed and used to make up fresh 50 μM working solution in Oligo Media. The fresh 50 μM working solution was diluted further in Oligo Media to make 10 μM working solution. Vehicle controls was made up in fresh Oligo Media using the appropriate amount of vehicle (DMSO). Coverslips were stored in clean 24-well plates at 4° C. until fixed-staining. Cells were imaged using Leica DM5500 fluorescent microscope with LAS-X software.
Exposure settings were maintained at the same rate across compounds of the same time-point. Cells were imaged at 20× and 40× magnifications. At least 5 images were taken per condition. Most conditions had at least 5 images that were counted. 20× images were utilized for counting DAPI (cell nuclei) and O4+ cells.
Total DAPI per image for all images was counted using ImageJ as here indicated. • Image was converted to 8 bit • Blue Channel (DAPI) was automatically thresholded by default ImageJ settings • Image noise was reduced by ImageJ>Process>Noise>Despeckle • ImageJ>Process>Binary>Watershed was used to automatically separate merged cell nuclei • ImageJ>Analyze>Analyze Particles was used to obtain final count of DAPI per image • Total number of DAPI-positive cells
Total number of O4+ cells per 20× image was manually counted using Adobe Photoshop: • All cell bodies of OPCs with underlying DAPI stain were counted as an O4+ cell • Total number of O4+ cells were recorded in Excel Spreadsheet O4+ cells in mixed brain cultures of wild type mice <P2 treated with compounds of the present disclosure or vehicle were quantified per condition (time point and concentration). The following formula was used to normalize the total cell counts within a compound as well as across compounds treated for the same duration (48h vs. 96h):
(number of O4+cell counts in Compound X/Average DAPI count for Compound X)*Total Average DAPI count across compounds of same Time Point
Values were plotted as Scatter Interval plots in Origin. Each data point represents a single image from which O4+ cell values were obtained. Data are presented as mean±S.E.
Images are at 20× magnification and represent 1-2 coverslips per group. Scale bar, 50 μm.

Row | Compound | % Increase OPC proliferation [%]
1 | CC(=O)SCCNC(=O)CCNC(=O)[C@H](O)C(C)(C)COC(=O)[C@@H](N)Cc1ccc(O)c(O)c1 [Compound 498, (3R)-3-[(2-[[2-(acetylsulfanyl)ethyl]carbamoyl]ethyl)carbamoyl]-3-hydroxy-2,2-dimethylpropyl (2S)-2-amino-3-(3,4-dihydroxyphenyl)propanoate] | ≥25
2 | CC(C)(CO)[C@@H](O)C(=O)NCCC(=O)NCCSC(=O)CCCN [Compound 370, (2R)—N-[2-([2-[(4-aminobutanoyl)sulfanyl]ethyl]carbamoyl)ethyl]-2,4-dihydroxy-3,3-dimethylbutanamide] | ≥10
3 | C[C@@H](O)CC(=O)SCCNC(=O)CCNC(=O)[C@H](O)C(C)(C)CO [Compound 38, S-2-{3-[(R)-2,4-dihydroxy-3,3-dimethylbutyrylamino]propionylamino} ethyl (R)-3-hydroxybutanethioate] | ≥25
4 | CC(C)(CO)[C@@H](O)C(=O)NCCC(=O)NCCSC(=O)CCC(=O)O [Compound 1, (R)-4-((2-(3-(2,4-dihydroxy-3,3-dimethylbutanamido)propanamido)ethyl)thio)-4-oxobutanoic acid] | ≥25
5 | COC(=O)CC(C(C)=O)C(=O)SCCNC(=O)CCNC(=O)[C@H](O)C(C)(C)CO (some centres unmarked) [Compound 410] | ≥25

Tested on: Venular Endothelial cells (HUVEC) (3C system)
Test: BioMAP 3C system (IL-1β, TNFα, IFNγ)
Format: cell-based, human
Conditions: 10 uM; procedure of Example 825
Method: The BioMAP platform (BioMAP® Diversity PLUS® Panel from Eurofins) is an in vitro phenotypic profiling technology that screened the compounds of the present disclosure (hereafter indicated as test agents) in human primary cell-based systems modelling complex tissue and disease states. The BioMAP assays were performed using the Eurofin's BioMAP Technology Platform as (see references 1 to 13 in the example 824 section) to model different diseases on primary cell-based model systems. These systems consisted of either single primary cell types or co-culture cells. Adherent cell types were cultured or co-cultured in 96 or 384-well plates until confluence followed by the addition of compounds prepared in DMSO at a final concentration of ≤0.1%. In each cell-based system, primary cells from heathy donors (2-6 donors) were pooled and treated with compounds at 1 and 10 μM dose 1h prior to stimulation and remain in culture as indicated in Example 825, Example 826, Example 827, Example 828, Example 829, Example 830, Example 831, Example 832, Example 833, Example 834, Example 835, Example 836 and Example 837. For on the BioMAP® Diversity PLUS® Panel, please see the following references, which are incorporate herein.
Following the general procedure as described in Example 824, Venular Endothelial cells (HUVEC) (3C system) were treated with IL-1β, TNFα, IFNγ for 24h to model Th1 driven cardiovascular and chronic inflammation diseases in the presence or absence of the compounds. Biomarker read out were; Tissue Factor, ICAM-1, E-selectin, uPAR (CD87), IL-8, MIG, HLA-DR, proliferation and SRB (Sulfo-rhodamine i.e. staining for protein content).

Row | Compound | % increase in Proliferation (HUVEC) [%] | % decrease in IL-8 [%]
6 | CC(=O)OCC(C)(C)[C@@H](OC(C)=O)C(=O)NCCC(=O)NCCSC(C)=O [Compound 1264, (1R)-3-(acetyloxy)-1-[(2-[[2-(acetylsulfanyl)ethyl]carbamoyl]ethyl)carbamoyl]-2,2-dimethylpropyl acetate] | ≥10 | 
7 | COC(=O)CCC(=O)SCCNC(=O)CCNC(=O)[C@H](OC(=O)CN)C(C)(C)CO [Compound 1294, methyl 4-[(2-[3-[(2R)-2-[(2-aminoacetyl)oxy]-4-hydroxy-3,3-dimethylbutanamido]propanamido]ethyl)sulfanyl]-4-oxobutanoate] | ≥20 | ≥10
8 | CCCCCCC(=O)SCCNC(=O)CCNC(=O)[C@H](O)C(C)(C)CO [Compound 372, (2R)—N-(2-[[2-(heptanoylsulfanyl)ethyl]carbamoyl]ethyl)-2,4-dihydroxy-3,3-dimethylbutanamide] | ≥20 | 
9 | CC(C)(CO)[C@@H](O)C(=O)NCCC(=O)NCCSC(=O)[C@@H](N)Cc1ccc(O)c(O)c1 [Compound 371, (2R)—N-[2-[(2-[[(2S)-2-amino-3-(3,4-dihydroxyphenyl)propanoyl]sulfanyl]ethyl)carbamoyl]ethyl]-2,4-dihydroxy-3,3-dimethylbutanamide] | ≥10 | 
10 | COC(=O)CCC(=O)SCCNC(=O)CCNC(=O)[C@H](OC(=O)CNC(C)=O)C(C)(C)CO [Compound 1298, methyl 4-[(2-[3-[(2R)-2-[(2-acetamidoacetyl)oxy]-4-hydroxy-3,3-dimethylbutanamido]propanamido]ethyl)sulfanyl]-4-oxobutanoate] |  | ≥10
